The values below come from patent US20080255080A1, “Hydroquinone Ansamycin Formulations” (priority 2007, published 2008).

The data set is described as follows: Solubility in aqueous solutions. The data set is classed as physicochemical. As for the experimental part:
The hydroquinones provided herein may be converted into salt form by reaction with an acid, or by reaction with an acid halide of an amino acid. In the examples, the C-17 alkyl amino group is protonated to generate a C-17 ammonium salt hydroquinone geldanamycin analog. In addition, the C-17 ammonium salt hydroquinones formed have the added benefit of being highly soluble in aqueous solutions (solubility >200 mg/mL), unlike 17-AAG (solubility <100 μg/mL).

A value given as a limit tells only on which side of the number the result lay.

Consider `C=CCNC1=C2C[C@@H](C)C[C@H](OC)[C@H](O)[C@@H](C)/C=C(\C)[C@H](OC(N)=O)[C@@H](OC)/C=C\C=C(/C)C(=O)NC(=CC1=O)C2=O` [Compound 17-AAG], for which the solubility is < 100 µg/mL.
